Tested on: castrated male cynomolguses
Assay: Serum DHEA and testosterone in castrated male cynomolguses after repeated oral administration (RIA)
Type: in vivo
Conditions: castrated male cynomolgus, 7.5 or 15 mg/kg/dose oral, twice a day for one week
Description: (+)-6-(7-Hydroxy-6,7-dihydro-5H-pyrrolo[1,2-c]imidazol-7-yl)-N-methyl-2-naphthamide was used as a test compound belonging to compound (I′). For oral administration, the test compound was weighed and placed in a mortar, 0.5% methylcellulose solution was added thereto, and the mixture was sufficiently admixed with a pestle to give a suspension.
6 to 12-year-old castrated male cynomolguses were divided into two groups (7.5 mg/kg/time test compound administration group and 15 mg/kg/time test compound administration group) each including 3 cynomolguses such that blood DHEA concentration would be impartial. The test compound was repeatedly administered orally twice a day (bid) for one week. Blood samples were collected twice a day from 3 days prior to the administration through the final day of administration. Vehicle (0.5% methylcellulose) was administered about one month after the completion of administration, and blood samples were collected according to the same schedule. Serum DHEA and serum testosterone concentrations were measured by RIA (radioimmunoassay).
The serum DHEA concentrations of the test compound administration group are shown in FIG. 1, and the serum DHEA concentrations of the vehicle administration group where vehicle was administered about a month after completion of the administration of the test compound are shown in FIG. 2. […]

Compound: CNC(=O)c1ccc2cc(C3(O)CCn4cncc43)ccc2c1 (single isomer, unassigned; (+)) [test compound, (+)-6-(7-Hydroxy-6,7-dihydro-5H-pyrrolo[1,2-c]imidazol-7-yl)-N-methyl-2-naphthamide]
- serum DHEA concentration (FIG. 1, maintained at low levels during the administration period): decreased
- serum testosterone concentration (FIG. 3, maintained at low levels during the administration period): decreased

Source: patent US20140256693A1, “PYRROLO [1,2-C] IMIDAZOLE DERIVATIVES FOR USE IN THE PROPHYLAXIS OR TREATMENT OF CANCER WHICH IS REFRACTORY TO KNOWN CANCER THERAPIES” (TAKEDA PHARMACEUTICAL COMPANY LIMITED, priority 2007, published 2014)
